The conditions of assay [1]: cyclic peptide; cited from earlier work.
The test system of the next assay is CJ^OPT protein crystal. More on the design: species or system Campylobacter jejuni.
In assay [2] the test system is adipose-derived stem cells (ADSCs). Briefly: ADSC attachment and spreading on protein crystals. The assay is classed as cell-based, human. The note with it: protein crystal surface passivated by covalent attachment of PEG; data not shown.
The subject of the next assay is streptavidin. The note with it: AFM; streptavidin/biotin partners (Beebe et al.) ref 40, 41; cited from earlier work.

Positions of bridges follow the written chain, without caps; N, C: chain ends. No end group written: not given here.

With “CWDDGWLC (disulfide 1-8 (inferred)) [IntP]”, the “binding to RGD” value in assay [1] is on record as “binds RGD”.

poly(ethylene glycol) [PEG]: the “adsorption of PEG from solution by crystals” value with CJ^OPT protein crystal was “adsorbed by the crystals from solution within minutes”. Moreover, the “cell adhesion” value in assay [2] was “no cell adhesion”. `O=C(O)CCCC[C@@H]1SC[C@@H]2NC(=O)N[C@@H]21` [biotin]: the ligand-receptor bond-rupture force with streptavidin is recorded as 442 ± 17 pN.

These data come from paper PMC10871713 (Materials today. Nano, 2023).
